Measured values reported in patent US8399522B2, “3.2.1-bicyclo-octane compounds” (International Flavors & Fragrances Inc, priority 2010, dated 2013).

Assays:
[1] = Vapor pressure; assay type: physicochemical
[2] = Mold/mildew malodor coverage, jar test ranked by sensory panel; design: species or system human; settings: compound 10% in solvent; for Mold/Mildew Malodor, mean rank of malodor coverage: 8 oz jar, 1 hour equilibration, 15-18 panelists, scale 1 (No Coverage), 3 (Moderate Coverage), 5 (Excellent Coverage)
Experimental: (§1) Establishment of Malodor Models: It is known that the perspirative malodors of human body, particularly sweat, are associated with the production of several unpleasant smelling organic acids, particularly isovaleric acid (“IVA”). The commercial sample of this malodorous material (commercially available at Sigma-Aldrich Inc.) was thus used as a model compound to assess the effectiveness of sweat malodor counteractants. The mold/mildew malodor model was prepared based on applicant's proprietary formulations for assessing the effectiveness of mold/mildew malodor counteractants.
(§2) Preparation of Test Samples: Two aluminum dishes were placed in an 8 oz glass jar. A malodor material was pipetted into one aluminum dish, and a compound of the present invention diluted in a solvent (10%) or a solvent alone control was pipetted into the other aluminum dish. The jar was then capped and the samples were allowed to equilibrate for one hour before the testing.
(§3) Testing Procedure: Test samples were presented in a blind and random order to 15-18 internal panelists (consisting of men/women with an age range of 25 to 55). However, different odor samples were arranged in an alternative order (for example, sweat, mold/mildew, sweat, mold/mildew, and etc.).
(§4) The panelists were instructed to take the steps of i) sniff jars containing only the malodor materials for familiarization prior to the testing; ii) uncap a jar; iii) place their noses at a distance of about 3-4 inches above the opening; iv) take short sniffs for 3 seconds; and v) provide a rank of the malodor coverage using an intensity scale of 1 to 5, where 1 represents “No Coverage”, 3 represents “Moderate Coverage”, and 5 represents “Excellent Coverage”. The means for each sample was then calculated.

[3] = Sweat malodor coverage, jar test ranked by sensory panel; design: species or system human; settings: compound 10% in solvent; for Sweat Malodor, mean rank of malodor coverage: 8 oz jar, 1 hour equilibration, 15-18 panelists, scale 1 (No Coverage), 3 (Moderate Coverage), 5 (Excellent Coverage)
Experimental: as §1, §2, §3, §4

Row | Structure (SMILES) | Vapor Pressure [1] | counteracting mold/mildew malodor (in words) [2] | Mold/Mildew Malodor, mean rank of malodor coverage [2] | counteracting sweat malodor (in words) [3] | Sweat Malodor, mean rank of malodor coverage [3]
1 | CC12CCC(C1)C1(C)OC1C2 (centres unmarked) [Structure 1, 2,6-dimethyl-3-oxa-tricyclo[4.2.1.0*2,4*]nonane] | 2186 µg/L | effective | 3.87 | effective | 3.59
2 | CC1C(=O)CC2(C)CCC1C2 (centres unmarked) [Structure 2, 1,4-dimethyl-bicyclo[3.2.1]octan-3-one] | 4305 µg/L | effective | 3.63 | effective | 3.57
3 | CC1CC2(C)C3CCC(C)(C3)CC2O1 (centres unmarked) [Structure 4, 2,4,8-trimethyl-5-oxa-tricyclo [6.2.1.0*2,6*]undecane] | 1045 µg/L | effective | 2.79 | effective | 3.11
4 | CC1C2CCC(C)(C2)CC12OCCO2 (centres unmarked) [Structure 5, 1,4-dimethyl-bicyclo[3.2.1]octan-3-dioxolane] | 1281 µg/L | effective | 2.39 | effective | 2.92
